From ChEMBL document CHEMBL3751693, “Synthesis, antimicrobial evaluation and molecular modeling of 5-hydroxyisoquinolinium salt series; the effect of the hydroxyl moiety” (Bioorg Med Chem, 2016)

Legend:
[1] = Cytotoxicity against CHOK1 cells after 24 hrs by MTT assay; format: cell-based; conditions: Cricetulus griseus, CHO-K1, 24 h
Candida tropicalis [2] = assay: Antimicrobial activity against Candida tropicalis 156 after 24 hrs by spectrophotometry; format: functional; conditions: Candida tropicalis, 156, 24 h
Staphylococcus aureus [3] = assay: Antimicrobial activity against clinical isolate methicillin-resistant Staphylococcus aureus H 599608 after 48 hrs; format: functional; conditions: H 599608, 48 h
Enterococcus sp. [4] = assay: Antimicrobial activity against clinical isolate Enterococcus sp. J 1436508 after 48 hrs; format: functional; conditions: J 1436508, 48 h
Staphylococcus aureus [5] = assay: Antimicrobial activity against clinical isolate methicillin-resistant Staphylococcus aureus H 599608 after 24 hrs; format: functional; conditions: H 599608, 24 h
[6] = system: Staphylococcus epidermidis; assay: Antimicrobial activity against clinical isolate Staphylococcus epidermidis H 696608 after 48 hrs; format: functional; conditions: H 696608, 48 h
Aspergillus fumigatus [7] = assay: Antimicrobial activity against Aspergillus fumigatus 231 after 48 hrs by spectrophotometry; format: functional; conditions: Aspergillus fumigatus, 231, 48 h
Lichtheimia corymbifera [8] = assay: Antimicrobial activity against Absidia corymbifera 272 after 48 hrs by spectrophotometry; format: functional; conditions: Lichtheimia corymbifera, 272, 48 h
Candida albicans [9] = assay: Antimicrobial activity against Candida albicans ATCC 44859 after 24 hrs by spectrophotometry; format: functional; conditions: ATCC 44859, 24 h
Klebsiella pneumoniae [10] = assay: Antimicrobial activity against clinical isolate ESBL-Klebsiella pneumoniae J 1436808 after 24 hrs; format: functional; conditions: J 1436808, 24 h
Trichosporon asahii [11] = assay: Antimicrobial activity against Trichosporon asahii 1188 after 48 hrs by spectrophotometry; format: functional; conditions: Trichosporon asahii, 1188, 48 h
Escherichia coli [12] = assay: Antimicrobial activity against clinical isolate Escherichia coli CCM 4517 after 48 hrs; format: functional; conditions: CCM 4517, 48 h
Klebsiella pneumoniae [13] = assay: Antimicrobial activity against clinical isolate Klebsiella pneumoniae D 1175008 after 48 hrs; format: functional; conditions: D 1175008, 48 h
Klebsiella pneumoniae [14] = assay: Antimicrobial activity against clinical isolate Klebsiella pneumoniae D 1175008 after 24 hrs; format: functional; conditions: D 1175008, 24 h
Staphylococcus aureus [15] = assay: Antimicrobial activity against clinical isolate Staphylococcus aureus CCM 451608 after 48 hrs; format: functional; conditions: CCM 451608, 48 h
Nakaseomyces glabratus [16] = assay: Antimicrobial activity against Candida glabrata 20/I after 24 hrs by spectrophotometry; format: functional
Enterococcus sp. [17] = assay: Antimicrobial activity against clinical isolate Enterococcus sp. J 1436508 after 24 hrs; format: functional; conditions: J 1436508, 24 h
Nakaseomyces glabratus [18] = assay: Antimicrobial activity against Candida glabrata 20/I after 48 hrs by spectrophotometry; format: functional
Trichosporon asahii [19] = assay: Antimicrobial activity against Trichosporon asahii 1188 after 24 hrs by spectrophotometry; format: functional; conditions: Trichosporon asahii, 1188, 24 h
Escherichia coli [20] = assay: Antimicrobial activity against clinical isolate Escherichia coli CCM 4517 after 24 hrs; format: functional; conditions: CCM 4517, 24 h
Pichia kudriavzevii [21] = assay: Antimicrobial activity against Candida krusei E28 after 48 hrs by spectrophotometry; format: functional; conditions: E28, 48 h
Pseudomonas aeruginosa [22] = assay: Antimicrobial activity against clinical isolate Pseudomonas aeruginosa CCM 1961 after 120 hrs; format: functional; conditions: CCM 1961, 120 h
Staphylococcus aureus [23] = assay: Antimicrobial activity against clinical isolate Staphylococcus aureus CCM 451608 after 24 hrs; format: functional; conditions: CCM 451608, 24 h
Pichia kudriavzevii [24] = assay: Antimicrobial activity against Candida krusei E28 after 24 hrs by spectrophotometry; format: functional; conditions: E28, 24 h
[25] = system: Trichophyton mentagrophytes; assay: Antimicrobial activity against Trichophyton mentagrophytes 445 after 72 hrs by spectrophotometry; format: functional; conditions: Trichophyton mentagrophytes, 445, 72 h
[26] = system: Staphylococcus epidermidis; assay: Antimicrobial activity against clinical isolate Staphylococcus epidermidis H 696608 after 24 hrs; format: functional; conditions: H 696608, 24 h
Klebsiella pneumoniae [27] = assay: Antimicrobial activity against clinical isolate ESBL-Klebsiella pneumoniae J 1436808 after 48 hrs; format: functional; conditions: J 1436808, 48 h
Aspergillus fumigatus [28] = assay: Antimicrobial activity against Aspergillus fumigatus 231 after 24 hrs by spectrophotometry; format: functional; conditions: Aspergillus fumigatus, 231, 24 h
Candida tropicalis [29] = assay: Antimicrobial activity against Candida tropicalis 156 after 48 hrs by spectrophotometry; format: functional; conditions: Candida tropicalis, 156, 48 h
[30] = system: Trichophyton mentagrophytes; assay: Antimicrobial activity against Trichophyton mentagrophytes 445 after 120 hrs by spectrophotometry; format: functional; conditions: Trichophyton mentagrophytes, 445, 120 h
Lichtheimia corymbifera [31] = assay: Antimicrobial activity against Absidia corymbifera 272 after 24 hrs by spectrophotometry; format: functional; conditions: Lichtheimia corymbifera, 272, 24 h
Candida albicans [32] = assay: Antimicrobial activity against Candida albicans ATCC 44859 after 48 hrs by spectrophotometry; format: functional; conditions: ATCC 44859, 48 h
Pseudomonas aeruginosa [33] = assay: Antimicrobial activity against clinical isolate Pseudomonas aeruginosa CCM 1961 after 72 hrs; format: functional; conditions: CCM 1961, 72 h

CCCCCCCCCCCCCC[n+]1ccc2ccccc2c1
31 µM: MIC (Lichtheimia corymbifera [8]) | MIC (Klebsiella pneumoniae [10]) | MBC (Klebsiella pneumoniae [27]) | MIC (Klebsiella pneumoniae [27]) | MIC (Lichtheimia corymbifera [31])
9 µM: IC50 [1]
63 µM: MBC (Pseudomonas aeruginosa [22]) | MIC (Pseudomonas aeruginosa [22]) | MIC (Pseudomonas aeruginosa [33])
0.5 µM: MIC (Candida tropicalis [2]) | MIC (Staphylococcus aureus [3]) | MIC (Enterococcus sp. [4]) | MIC (Staphylococcus aureus [5]) | MIC [6] | MIC (Candida albicans [9]) | MIC (Staphylococcus aureus [15]) | MIC (Nakaseomyces glabratus [16]) | MIC (Enterococcus sp. [17]) | MIC (Nakaseomyces glabratus [18]) | MIC (Pichia kudriavzevii [21]) | MIC (Staphylococcus aureus [23]) | MIC (Pichia kudriavzevii [24]) | MIC [26] | MIC (Candida tropicalis [29]) | MIC (Candida albicans [32])
16 µM: MFC [30]
3.9 µM: MBC (Enterococcus sp. [4]) | MFC (Trichosporon asahii [11]) | MIC (Trichosporon asahii [11]) | MBC (Escherichia coli [12]) | MBC (Klebsiella pneumoniae [13]) | MIC (Klebsiella pneumoniae [13]) | MIC (Klebsiella pneumoniae [14]) | MFC (Nakaseomyces glabratus [18]) | MIC (Trichosporon asahii [19]) | MIC [25] | MIC [30]
2 µM: MIC (Escherichia coli [12]) | MIC (Escherichia coli [20])
1 µM: MBC (Staphylococcus aureus [3]) | MBC [6] | MBC (Staphylococcus aureus [15]) | MFC (Pichia kudriavzevii [21]) | MFC (Candida tropicalis [29]) | MFC (Candida albicans [32])
250 µM: MFC (Lichtheimia corymbifera [8])
7.8 µM: MFC (Aspergillus fumigatus [7]) | MIC (Aspergillus fumigatus [7]) | MIC (Aspergillus fumigatus [28])

CCCCCCCCCCCCCCCC[n+]1ccc2ccccc2c1
1 µM: MIC (Staphylococcus aureus [3]) | MIC (Enterococcus sp. [4]) | MIC (Staphylococcus aureus [5]) | MIC (Staphylococcus aureus [15]) | MIC (Enterococcus sp. [17]) | MIC (Staphylococcus aureus [23])
31 µM: MBC (Klebsiella pneumoniae [27])
7.8 µM: MIC (Klebsiella pneumoniae [10]) | MBC (Klebsiella pneumoniae [13]) | MIC (Klebsiella pneumoniae [27]) | MFC [30]
16 µM: MIC (Lichtheimia corymbifera [8]) | MIC (Lichtheimia corymbifera [31])
3.9 µM: MBC (Enterococcus sp. [4]) | MFC (Aspergillus fumigatus [7]) | MIC (Aspergillus fumigatus [7]) | MFC (Trichosporon asahii [11]) | MIC (Trichosporon asahii [11]) | MBC (Escherichia coli [12]) | MIC (Escherichia coli [12]) | MIC (Klebsiella pneumoniae [13]) | MIC (Klebsiella pneumoniae [14]) | MIC (Trichosporon asahii [19]) | MIC (Escherichia coli [20]) | MIC (Aspergillus fumigatus [28])
125 µM: MFC (Lichtheimia corymbifera [8]) | MBC (Pseudomonas aeruginosa [22]) | MIC (Pseudomonas aeruginosa [22]) | MIC (Pseudomonas aeruginosa [33])
0.5 µM: MIC [6] | MIC [26]
7 µM: IC50 [1]
2 µM: MIC (Candida tropicalis [2]) | MBC (Staphylococcus aureus [3]) | MBC [6] | MIC (Candida albicans [9]) | MBC (Staphylococcus aureus [15]) | MIC (Nakaseomyces glabratus [16]) | MFC (Nakaseomyces glabratus [18]) | MIC (Nakaseomyces glabratus [18]) | MFC (Pichia kudriavzevii [21]) | MIC (Pichia kudriavzevii [21]) | MIC (Pichia kudriavzevii [24]) | MIC [25] | MFC (Candida tropicalis [29]) | MIC (Candida tropicalis [29]) | MIC [30] | MFC (Candida albicans [32]) | MIC (Candida albicans [32])

CCCCCCCCCC[n+]1ccc2ccccc2c1
250 µM: MIC (Klebsiella pneumoniae [10]) | MFC (Trichosporon asahii [11]) | MIC (Trichosporon asahii [11]) | MIC (Trichosporon asahii [19]) | MIC (Klebsiella pneumoniae [27])
63 µM: MIC (Enterococcus sp. [4]) | MIC (Escherichia coli [12]) | MIC (Klebsiella pneumoniae [13]) | MIC (Klebsiella pneumoniae [14]) | MIC (Enterococcus sp. [17]) | MIC (Escherichia coli [20]) | MIC [25] | MIC [30] | MFC (Candida albicans [32])
7.8 µM: MIC (Nakaseomyces glabratus [16]) | MIC (Nakaseomyces glabratus [18]) | MFC (Candida tropicalis [29])
2 µM: MIC [6] | MFC (Pichia kudriavzevii [21]) | MIC [26]
> 500 µM: MFC (Aspergillus fumigatus [7]) | MFC (Lichtheimia corymbifera [8]) | MIC (Lichtheimia corymbifera [8]) | MBC (Pseudomonas aeruginosa [22]) | MIC (Pseudomonas aeruginosa [22]) | MIC (Lichtheimia corymbifera [31]) | MIC (Pseudomonas aeruginosa [33])
16 µM: MBC [6] | MIC (Candida albicans [9]) | MIC (Staphylococcus aureus [15]) | MIC (Staphylococcus aureus [23]) | MIC (Candida albicans [32])
31 µM: MIC (Staphylococcus aureus [3]) | MIC (Staphylococcus aureus [5]) | MBC (Staphylococcus aureus [15]) | MFC (Nakaseomyces glabratus [18])
125 µM: MBC (Staphylococcus aureus [3]) | MBC (Enterococcus sp. [4]) | MBC (Escherichia coli [12]) | MBC (Klebsiella pneumoniae [13]) | MFC [30]
41 µM: IC50 [1]
0.5 µM: MIC (Pichia kudriavzevii [21]) | MIC (Pichia kudriavzevii [24])
3.9 µM: MIC (Candida tropicalis [2])
3.8 µM: MIC (Candida tropicalis [29])
500 µM: MIC (Aspergillus fumigatus [7]) | MBC (Klebsiella pneumoniae [27]) | MIC (Aspergillus fumigatus [28])

CCCCCCCCCCCCCCCC[n+]1ccc2c(O)cccc2c1
16 µM: IC50 [1] | MIC (Candida albicans [9]) | MIC [25] | MIC [30] | MIC (Candida albicans [32])
63 µM: MBC (Enterococcus sp. [4]) | MIC (Enterococcus sp. [4]) | MBC [6] | MIC [6] | MIC (Trichosporon asahii [11]) | MIC (Enterococcus sp. [17]) | MIC (Trichosporon asahii [19]) | MIC [26]
7.8 µM: MIC (Candida tropicalis [2]) | MFC (Pichia kudriavzevii [21]) | MIC (Pichia kudriavzevii [21]) | MIC (Pichia kudriavzevii [24]) | MFC (Candida tropicalis [29]) | MIC (Candida tropicalis [29])
> 500 µM: MFC (Aspergillus fumigatus [7]) | MIC (Aspergillus fumigatus [7]) | MFC (Lichtheimia corymbifera [8]) | MIC (Lichtheimia corymbifera [8]) | MIC (Klebsiella pneumoniae [10]) | MBC (Escherichia coli [12]) | MIC (Escherichia coli [12]) | MBC (Klebsiella pneumoniae [13]) | MIC (Klebsiella pneumoniae [13]) | MIC (Klebsiella pneumoniae [14]) | MIC (Escherichia coli [20]) | MBC (Pseudomonas aeruginosa [22]) | MIC (Pseudomonas aeruginosa [22]) | MBC (Klebsiella pneumoniae [27]) | MIC (Aspergillus fumigatus [28]) | MIC (Lichtheimia corymbifera [31]) | MIC (Pseudomonas aeruginosa [33])
500 µM: MIC (Klebsiella pneumoniae [27])
125 µM: MFC (Trichosporon asahii [11]) | MFC [30] | MFC (Candida albicans [32])
0.5 µM: MBC (Staphylococcus aureus [3]) | MIC (Staphylococcus aureus [3]) | MIC (Staphylococcus aureus [5]) | MBC (Staphylococcus aureus [15]) | MIC (Staphylococcus aureus [15]) | MIC (Staphylococcus aureus [23])
3.9 µM: MIC (Nakaseomyces glabratus [16]) | MFC (Nakaseomyces glabratus [18]) | MIC (Nakaseomyces glabratus [18])
